Test results reported in US20260152724A1, “SMALL INTESTINE EPITHELIUM-LIKE CELLS AND PRODUCTION METHOD THEREOF” (OSAKA UNIVERSITY, priority 2022, published 2026).
Read-outs that look alike come from different tables or passages of the source.

How the values were obtained:
[1] = system: definitive endoderm cells; assay: Induction of differentiation from definitive endoderm cells into intestinal progenitor cells, marker gene expression by qRT-PCR (Example 1); assay type: cell-based, human; conditions: 4 days
Text: This Example examined a differentiation-inducing action in a culture system containing each concentration of retinoic acid or a GSK3β inhibitor, which was known to be important in differentiation from definitive endoderm. To induce differentiation from definitive endoderm cells into intestinal progenitor cells, the medium B shown in Reference Example 2 was used as a basal medium.
Then, RNAs were recovered and analyzed for gene expression levels of an intestinal progenitor cell marker CDX2, a hepatic progenitor cell marker AFP, and a pancreatic progenitor cell marker PDX1 by quantitative RT-PCR (qRT-PCR). The quantitative RT-PCR was performed according to a common method. Total RNAS were recovered and CDNAS were synthesized. Complementary DNAs (cDNAs) were subjected to qRT-PCR with Fast SYBR Green Master Mix (Applied Biosystems) and quantification with StepOnePlus Real time PCR system (Applied Biosystems). A glyceraldehyde 3-phosphate dehydrogenase (GAPDH) gene was used as an internal standard gene. In addition, each gene expression level of DMSO-treated groups, which were controls, was set to 1.0. Data was shown with n=3, mean±standard deviation, but n=2 for each LY (10 nM and 30 nM). A detection limit was represented by N.D.

CYP3A4 [2] = assay: CYP3A4 activity of ELCs, P450-Glo CYP3A4 assay (Example 3); assay type: cell-based, human; conditions: PD 3 μM in medium C for 10 days, PD(+) versus PD(−); Luciferin-IPA substrate, corrected by protein per well
Experimental: (§1) Further, CYP3A4 activity was checked. The CYP3A4 activity was measured with P450-Glo™ CYP3A4 Assay Kits (Promega Corporation). […] The CYP3A4 activity was corrected by the amount of a protein per well measured with BCA Protein Assay Kit (Thermo Fisher Scientific Inc.).

CYP3A4 [3] = assay: Elimination of a humoral factor from medium K in ELC monolayer culture, CYP3A4 activity (Example 9)
Experimental: as §1
This Example investigated an influence of a humoral factor in ELC monolayer culture. […] In this Example, culture was performed with addition of the medium to only an upper stage A in a cell culture insert (Corning Incorporated) used in monolayer culture (FIG. 9(1)).

[4] = system: intestinal progenitor cells; assay: MEK inhibitor in differentiation from intestinal progenitor cells into ELCs, gene expression by qRT-PCR (Example 3); assay type: cell-based, human; conditions: PD 3 μM in medium C for 10 days, PD(+) versus PD(−); Conditions 2 and 3
Experimental: This Example investigated the action of a MEK inhibitor in a stage of inducing differentiation from intestinal progenitor cells into enterocyte-like cells (ELCs). PD0325901 (MedChemExpress LLC) was used as the MEK inhibitor. PD0325901 is sometimes abbreviated as PD in this Example and Examples described below. In a step from definitive endoderm cells to intestinal progenitor cells, culture e was performed under Conditions 2 and 3 shown in Table 3 in Example 2 according to the protocol illustrated in FIG. 3(1). […] Thus, the cells were induced to differentiate into enterocyte-like cells (ELCs). Subsequently, RNAs were recovered by the same procedure as in Example 1, and analyzed for each gene expression level of VIL1, CYP3A4, and MDR1 by qRT-PCR by the same method as in Example 2. Each gene expression level in an adult small intestine was set to 1.0. Data was shown with n=3, mean±standard deviation.

P-gp = assay: Elimination of a humoral factor from medium K in ELC monolayer culture, P-gp activity (Example 9); assay type: cell-based, human; conditions: ELC monolayer (day 27 2D K), 6 days in medium K without the factor; digoxin substrate
Experimental: P-gp is an efflux transporter, and its activity was measured by allowing 1 μM digoxin to act through use of digoxin, [^3H (G)]-(PerkinElmer) and digoxin (Asahi Kasei Corporation) as substrate compounds, and allowing 100 μM verapamil to act as an inhibitor.

[5] = RA at each concentration (3, 10, 20, 30 μM) in medium B, DMSO-treated group = 1.0

Compound: Cc1c[nH]c(-c2cnc(NCCNc3ccc(C#N)cn3)nc2-c2ccc(Cl)cc2Cl)n1 [CHIR, CHIR99021]
- expression of CDX2 ([1]; CHIR at 10 μM (of 3, 10, 20 μM) in medium B): highest expression
- expression of AFP ([1]; CHIR at 10 μM in medium B): low expressions
- expression of PDX1 ([1]; CHIR at 10 μM in medium B): low expressions

Compound: O=C1NC(=O)C(c2cnc3ccccn23)=C1c1cn2c3c(cc(F)cc13)CN(C(=O)N1CCCCC1)CC2 [LY, LY2090314]
- expression of CDX2 ([1]; LY at 20 nM (of 3, 10, 20, 30 nM) in medium B): highest expression
- expression of AFP (hepatic progenitor cell marker) ([1]; LY at 20 nM in medium B): low expressions
- expression of PDX1 ([1]; LY at 20 nM in medium B): low expressions

Compound: O=C(NOC[C@H](O)CO)c1ccc(F)c(F)c1Nc1ccc(I)cc1F [PD, PD0325901]
- CYP3A4 activity (CYP3A4 [2]): clearly higher value
- CYP3A4 activity on elimination of the factor from medium K (CYP3A4 [3]): greatly decreased
- gene expression level of CYP3A4 [4]: clearly higher values
- gene expression level of MDR1 [4]: clearly higher values

Compound: CC1=C(/C=C/C(C)=C/C=C/C(C)=C/C(=O)O)C(C)(C)CCC1 [RA, all-trans-Retinoic Acid]
- expression level of CDX2 (intestinal progenitor cell marker) [1, 5]: high expression levels
- expression level of PDX1 (pancreatic progenitor cell marker) [1, 5]: high expression levels

Compound: NC(=O)c1ccc(-c2nc(-c3ccc4c(c3)OCO4)c(-c3ccccn3)[nH]2)cc1 [SB431542]
- CYP3A4 activity on elimination of the factor from medium K (CYP3A4 [3]): significantly increased

Compound: C=C1/C(=C\C=C2/CCC[C@]3(C)[C@@H]([C@H](C)CCCC(C)(C)O)CC[C@@H]23)C[C@@H](O)C[C@@H]1O [Vitamin D3, 1α,25-Dihydroxyvitamin D3]
- CYP3A4 activity on elimination of the factor from medium K (CYP3A4 [3]; ELC monolayer (day 27 2D K), 6 days in medium K without the factor): greatly decreased

Compound: EGF: Epidermal growth factor, component of medium K
- P-gp activity on elimination of the factor from medium K (P-gp): no influence
- CYP3A4 activity on elimination of the factor from medium K (CYP3A4 [3]): significantly increased
